The target of experiment [1] is PRMT5-MTA (Homo sapiens, UniProt O14744). The experiment is described as follows: Enzymatic inhibitory activity against PRMT5-MTA (AlphaScreen). Type of experiment: biochemical. In short, it runs like this:
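PRMT5/[…] (1 nM) was preincubated for 30 min at room temperature with 1 µM […] and 2.5 µM SAM, then exposed to compound (10-point, 3-fold from 1000 nM) for 15 min at 23 °C. Histone H4 substrate (5 nM) was added and reacted for 45 min at 23 °C. Symmetric dimethyl-R3 H4 was detected by AlphaScreen and IC50 calculated.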
For orientation: Bead proximity is the source of the signal in Alpha formats.

The test system of experiment [2] is HCT116 MTAP KO cells. The experiment is described as follows: Inhibitory activity against cell proliferation (CellTiter Glo, 6 days), HCT116 MTAP KO. The format is cell-based. The settings on record: for IC50: Homo sapiens, HCT-116, 144 h, HCT116 MTAP KO cells, 6 days, CellTiter Glo, read-out: HCT116 MTAP KO IC50; for Selectivity HCT 116-WT/ HCT116 MTAP KO: ratio of IC50 HCT116-WT / HCT116 MTAP KO. In outline: (§1)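 Following overnight attachment of 250 cells per well in McCoy's 5A medium with 10% FBS, compounds spanning 8 concentrations (4-fold, top 10000 nM) were applied for 6 days. Growth inhibition IC50 was derived from luminescent ATP signal.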
(In general: ATP-based viability assays read luminescence as a measure of living cells.)

Experiment [3] concerns HCT116-WT cells. Put plainly: Inhibitory activity against cell proliferation (CellTiter Glo, 6 days), HCT116-WT. The format is cell-based. The settings on record: 144 h, HCT116-WT cells, 6 days, CellTiter Glo; read-out: HCT116-WT IC50. In outline:
as §1

The term IC50 denotes the midpoint of a concentration-inhibition curve.

Read-outs that look alike come from different tables or passages of the source.

PRMT5-MTA, sequence (O14744 whole entry): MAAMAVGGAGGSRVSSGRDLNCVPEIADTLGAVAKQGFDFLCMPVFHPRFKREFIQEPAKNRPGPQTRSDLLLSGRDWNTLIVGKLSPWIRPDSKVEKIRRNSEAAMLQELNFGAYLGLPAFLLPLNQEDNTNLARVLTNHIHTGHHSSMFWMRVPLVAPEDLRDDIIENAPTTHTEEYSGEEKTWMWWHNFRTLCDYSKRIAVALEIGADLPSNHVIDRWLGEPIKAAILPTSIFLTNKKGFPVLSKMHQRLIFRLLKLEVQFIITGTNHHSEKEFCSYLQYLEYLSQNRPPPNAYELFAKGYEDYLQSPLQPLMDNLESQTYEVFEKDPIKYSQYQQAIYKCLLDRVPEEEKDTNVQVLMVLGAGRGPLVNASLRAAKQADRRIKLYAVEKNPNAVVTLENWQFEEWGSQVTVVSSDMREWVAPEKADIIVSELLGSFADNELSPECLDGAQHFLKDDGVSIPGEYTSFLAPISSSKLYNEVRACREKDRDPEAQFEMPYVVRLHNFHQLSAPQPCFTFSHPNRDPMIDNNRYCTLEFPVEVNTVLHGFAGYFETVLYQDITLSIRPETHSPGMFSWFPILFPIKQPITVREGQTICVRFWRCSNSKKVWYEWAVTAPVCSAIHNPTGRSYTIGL
PRMT5-MTA, sequence (Q9BQA1 whole entry partner): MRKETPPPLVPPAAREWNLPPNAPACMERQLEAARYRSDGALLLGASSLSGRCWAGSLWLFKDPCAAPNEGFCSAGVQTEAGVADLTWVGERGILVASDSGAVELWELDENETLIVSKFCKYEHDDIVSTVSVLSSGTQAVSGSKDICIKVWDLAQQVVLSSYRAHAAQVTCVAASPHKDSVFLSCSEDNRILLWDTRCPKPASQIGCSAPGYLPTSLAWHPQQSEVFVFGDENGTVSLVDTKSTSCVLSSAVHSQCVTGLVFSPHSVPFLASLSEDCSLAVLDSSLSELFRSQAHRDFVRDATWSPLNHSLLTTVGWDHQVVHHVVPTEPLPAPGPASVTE

As for `Cc1cc2nc(N)c3cnn(C)c3c2cc1C(=O)N1CC(C)CN1c1cccc(Br)n1` (stereo not shown) [Example 404, (4-amino-1,7-dimethyl-1H-pyrazolo[4,3-c]quinolin-8-yl)(2-(6-bromopyridin-2-yl) -4-methylpyrazolidin-1-yl)methanone], the figures for the IC50 in experiment [1] (read-out: IC50), in experiment [2] and in experiment [3] were 0.0066 µM, 0.0046 µM and 0.114 µM, respectively. Besides, the “Selectivity HCT 116-WT/ HCT116 MTAP KO” value in experiment [2] is 24.78.

As for `Cc1cc2cc(C(=O)N(Cc3ccc(-c4cnn(C)c4)cn3)N(C)c3ncccc3F)ccc2nc1N` [Example 179, 2-amino-N'-(3-fluoropyridin-2-yl)-N',3-di methyl-N-((5-(1-methyl-1H-pyrazol-4-yl)pyridin-2-yl)methyl)quinoline-6-carbohy drazide], the IC50 in experiment [1] (read-out: IC50) amounted to 0.0034 µM; in experiment [2], 0.064 µM; in experiment [3] it was 1.32 µM. Moreover, in experiment [2], the “Selectivity HCT 116-WT/ HCT116 MTAP KO” value came to 20.56.

`Cc1cc2nc(N)c3cnn(C)c3c2cc1C(=O)N1CC(C)CN1c1ncc(-c2cscn2)cc1F` (stereo not shown) [Example 488, (4-amino-1,7-dimethyl-1H-pyrazolo[4,3-c]quinolin-8-yl)(2-(3-fluoro-5-(thiazol-4-yl)pyridin-2-yl)-4-methylpyrazolidin-1-yl)methanone]: the values for the concentration for half-maximal inhibition (IC50) in experiment [1] (read-out: IC50), in experiment [2] and in experiment [3] were 0.0053 µM, 0.025 µM and 0.531 µM, respectively. Further, the “Selectivity HCT 116-WT/ HCT116 MTAP KO” value in experiment [2] stood at 21.24.

With `[2H]C([2H])([2H])N(c1ncccn1)N(Cc1ccc(Br)cn1)C(=O)c1ccc2nc(N)c(C)cc2c1` [Example 64, 2-amino-N-((5-bromopyridin-2-yl)methyl)-3-methyl-N'-(methyl-d3)-N'-(pyrimidin-2-yl)quinoline-6-carbohydrazide], the IC50 in experiment [1] (read-out: IC50) was 0.0017 µM; in experiment [2] it was 0.038 µM; in experiment [3] it was 0.918 µM. The “Selectivity HCT 116-WT/ HCT116 MTAP KO” value in experiment [2] is given as 24.16.

In the case of `CN(C(=O)c1cc2c(cc1F)nc(N)c1cnn(C)c12)N1CCc2nc(Br)ccc21` [Example 32, 4-amino-N-(5-bromo-2,3-dihydro-1H-pyrrolo[3,2-b]pyridin-1-yl)-7-fluoro-N,1-dimethy 1-1H-pyrazolo[4,3-c]quinoline-8-carboxamide], the values for the IC50 in experiment [1], in experiment [2] and in experiment [3] were 0.0025 µM, 0.122 µM and 3.64 µM, respectively. Further, the “Selectivity HCT 116-WT/ HCT116 MTAP KO” value in experiment [2] is 29.85.

For the molecule `COC1CN(C(=O)c2cc3c(cc2C)nc(N)c2cnn(C)c23)N(c2ncc(F)cc2F)C1` (stereo not shown) [Example 443, (4-amino-1,7-dimethyl-1H-pyrazolo[4,3-c]quinolin-8-yl)(2-(3,5- ? fluoropyridin-2-yl)-4-methoxypyrazolidin-1-yl)methanone], the figures for the IC50 in experiment [1] (read-out: IC50), in experiment [2] and in experiment [3] were 0.005 µM, 0.026 µM and 0.468 µM, respectively. For the same molecule, the “Selectivity HCT 116-WT/ HCT116 MTAP KO” value in experiment [2] was 18.00.

On to `COc1nc(C)ccc1-c1ccc(CN(C(=O)c2ccc3nc(N)c(C)cc3c2)N(C)c2ncccn2)nc1` [Example 137, 2-amino-N-((2'-methoxy-6'-methyl-[3,3'-bipyridine]-6-yl)methyl)-N',3-dimethyl-N'-(pyrimidin-2-yl)quinoline-6-carbohydrazide], for which the figures for the 50% inhibitory concentration (IC50) in experiment [1] (read-out: IC50), in experiment [2] and in experiment [3] were 0.0013 µM, 0.11 µM and 1.99 µM, respectively. For the same molecule, in experiment [2], the “Selectivity HCT 116-WT/ HCT116 MTAP KO” value worked out at 18.07.

For `Cc1cc2cc(C(=O)N(Cc3ccc(Br)cn3)N(c3ncccn3)C3CC3)ccc2nc1N` [Example 82, 2-amino-N-((5-bromopyridin-2-yl)methyl)-N'-cyclopropyl-3-methyl-N'-(pyrimidin-2-yl)quinoline-6-carbohydrazide], the IC50 was 0.0022 µM in experiment [1] (read-out: IC50), 0.016 µM in experiment [2] and 0.282 µM in experiment [3]. Moreover, the “Selectivity HCT 116-WT/ HCT116 MTAP KO” value in experiment [2] stood at 17.63.

Regarding `Cc1cc2cc(C(=O)N(Cc3ccc(C(C)O)cn3)N(C)c3ncccn3)ccc2nc1N` (stereo not shown) [Example 295, 2-amino-N-((5-(1-hydroxyethyl)pyridin-2-yl)methyl)-N',3-dimethyl-N-(pyrimidin-2-yl) quinoline-6-carbohydrazide], the IC50 in experiment [1] (read-out: IC50) is 0.002 µM; in experiment [2], 0.399 µM; in experiment [3], 4.94 µM. Further, the “Selectivity HCT 116-WT/ HCT116 MTAP KO” value in experiment [2] turned out to be 12.38.

Consider `CC1CN(C(=O)c2cc3c(cc2F)nc(N)c2cnn(C)c23)N(c2ncccc2F)C1` (single isomer, unassigned) [Example 466], for which the IC50 turned out to be 0.0044 µM in experiment [1] (read-out: IC50), 0.013 µM in experiment [2] and 0.66 µM in experiment [3]. Moreover, in experiment [2], the “Selectivity HCT 116-WT/ HCT116 MTAP KO” value is on record as 50.77.

With `Cn1ncc2c(N)nc3cc(F)c(C(=O)N4CCCN4c4ccc(C(F)(F)F)cn4)cc3c21` [Example 340, (4-amino-7-fluoro-1-methyl-1H-pyrazolo [4,3-c]quinolin-8-yl)(2-(5-(trifluoromethyl)pyridin-2-yl)pyrazolidin-1-yl)methanone], the figures for the IC50 in experiment [1] (read-out: IC50), in experiment [2] and in experiment [3] were 0.0042 µM, 0.295 µM and > 10 µM, respectively.

For the molecule `Cc1cc2cc(C(=O)N(Cc3ccc(-c4scnc4CO)cn3)N(C)c3ncccn3)ccc2nc1N` [Example 236, 2-amino-N-((5-(4-(hydroxymethyl)thiazo 1-5-yl)pyridin-2-yl)methyl)-N',3-dimethyl -N'-(pyrimidin-2-yl)quinoline-6-carbohyd razide], the IC50 turned out to be 0.006 µM in experiment [1] (read-out: IC50), 0.026 µM in experiment [2] and 1.11 µM in experiment [3]. For the same molecule, the “Selectivity HCT 116-WT/ HCT116 MTAP KO” value in experiment [2] stood at 42.85.

For `Cc1cc2cc(C(=O)N(Cc3ccc(C4CC4)cn3)N(C)c3ncccc3C(F)(F)F)ccc2nc1N` [Example 196, 2-amino-N-((5-cyclopropylpyridin-2-yl)methyl)-N',3-dimethyl-N'-(3-(trifluoromethyl)pyridin-2-yl)quinoline-6-carbohydrazide], the values for the IC50 in experiment [1] (read-out: IC50), in experiment [2] and in experiment [3] were 0.0057 µM, 0.034 µM and 0.441 µM, respectively. Also, in experiment [2], the “Selectivity HCT 116-WT/ HCT116 MTAP KO” value stood at 12.97.

On to `Cn1ncc2c(N)nc3cc(Cl)c(C(=O)N4CC(C)(F)CN4c4ncc(F)cc4F)cc3c21` (stereo not shown) [Example 424, (4-amino-7-chloro-1-methyl-1H-pyrazolo [4,3-c]quinolin-8-yl)(2-(3,5-2 fluoropyridin-2-yl)-4-fluoro-4-methylpyrazolidin-1-yl)methanone], for which the IC50 in experiment [1] (read-out: IC50) stood at 0.0073 µM; in experiment [2], 0.023 µM; in experiment [3], 0.374 µM. Also, in experiment [2], the “Selectivity HCT 116-WT/ HCT116 MTAP KO” value turned out to be 16.26.

With `Cc1cc2cc(C(=O)N(Cc3ccc(C4CCC4)cn3)N(C)c3ncccn3)ccc2nc1N` [Example 289, 2-amino-N-((5-cyclobutylpyridin-2-yl)methyl)-N',3-dimethyl-N'-(pyrimidin-2-yl)quinoline-6-carbohydrazide], the values for the IC50 in experiment [1] (read-out: IC50), in experiment [2] and in experiment [3] were 0.0009 µM, 0.053 µM and 0.691 µM, respectively. The “Selectivity HCT 116-WT/ HCT116 MTAP KO” value in experiment [2] was found to be 13.04.

As for `Cc1cc2cc(C(=O)N(Cc3ncc(Br)cc3F)N(C)c3ncccn3)ccc2nc1N` [Example 277, 2-amino-N-((5-bromo-3-fluoropyridin-2-yl)methyl)-N',3-dimethyl-N'-(pyrimidin-2-yl)quinoline-6-carbohydrazide], the concentration for half-maximal inhibition (IC50) in experiment [1] (read-out: IC50) turned out to be 0.0022 µM; in experiment [2], 0.079 µM; in experiment [3], 1.91 µM. Also, the “Selectivity HCT 116-WT/ HCT116 MTAP KO” value in experiment [2] was determined as 24.23.

`[2H]C([2H])([2H])c1cc2cc(C(=O)N(Cc3ccc(-c4scnc4C)cn3)N(c3ncccn3)C3CC3)ccc2nc1N` [Example 316, 2-amino-N'-cyclopropyl-3-(methyl-D3)-N-((5-(4-methylthiazol-5-yl)pyridin-2-yl)methyl)-N'-(pyrimidin-2-yl)quinoline-6-c arbohydrazide]: the 50% inhibitory concentration (IC50) in experiment [1] (read-out: IC50) is 0.0068 µM; in experiment [2], 0.011 µM; in experiment [3], 0.215 µM. In addition, the “Selectivity HCT 116-WT/ HCT116 MTAP KO” value in experiment [2] turned out to be 19.55.

For `Cc1cc2nc(N)c3cnn(C)c3c2cc1C(=O)N1CC(C)CN1c1ncc(C#CCF)cc1F` (stereo not shown) [Example 495, (4-amino-1,7-dimethyl-1H-pyrazolo[4,3-c]quinolin-8-yl)(2-(3-fluoro-5-(3-fluoroprop-1-yn-1-yl)pyridin-2-yl)-4-methylpyrazolidin-1-yl)methanone], the IC50 was 0.015 µM in experiment [1] (read-out: IC50), 0.069 µM in experiment [2] and 1.66 µM in experiment [3]. Also, in experiment [2], the “Selectivity HCT 116-WT/ HCT116 MTAP KO” value worked out at 24.00.

Turning to `Cc1cc2cc(C(=O)N(Cc3ccc(-c4cncs4)cn3)N(C)c3nccc4nccnc34)ccc2nc1N` [Example 183, 2-amino-N',3-dimethyl-N'-(pyrido[3,4-b]pyrazin-5-yl)-N-((5-(thiazol-5-yl)pyridin-2-yl)methyl)quinoline-6-carbohydrazide], the half-maximal inhibitory concentration (IC50) in experiment [1] (read-out: IC50) came out at 0.0039 µM; in experiment [2], 0.017 µM; in experiment [3], 0.318 µM. Also, in experiment [2], the “Selectivity HCT 116-WT/ HCT116 MTAP KO” value is listed as 18.71.

For the molecule `Cc1cc2cc(C(=O)N(Cc3ccc(C(F)(F)F)cn3)N(C)c3nccc4ccncc34)ccc2nc1N` [Example 266, 2-amino-N',3-dimethyl-N'-(2,7-naphthyridin-1-yl)-N-((5-(trifluoromethyl)pyridin-2-yl)methyl)quinoline-6-carbohydrazide], the IC50 in experiment [1] (read-out: IC50) is 0.0026 µM; in experiment [2], 0.231 µM; in experiment [3] it was 3.14 µM. For the same molecule, the “Selectivity HCT 116-WT/ HCT116 MTAP KO” value in experiment [2] is listed as 13.60.

Values taken from patent EP4745134A1 (Jiangsu Yahong Meditech Co., Ltd., priority 2023, dated 2025).
